# Assay results from PubChem BioAssay AID720577 (The Scripps Research Institute Molecular Screening Center, 2013).
# Calls of active or inactive are those of the source. The rule behind the calls is not given here.
# Molecular target: CCHF virus vOTU protease domain (L polyprotein)
# Test: Crimean Congo hemorrhagic fever virus vOTU protease, Pep AMC substrate, counterscreen, confirmatory (AID 720577)
# Conditions: purified vOTU, fluorescence
row,SMILES,IC50
1,Cc1ccc(S(=O)(=O)/N=C2\C=C(Nc3cccc(C(=O)O)c3)C(=O)c3ccccc32)c(C)c1,2.36 µM
2,C[n+]1c(-c2ccccc2)cc2c(=Cc3ccccc3)c3ccccc3n21,3.65 µM
3,CCOC(=O)C1CCN(C(=O)c2c(C)oc3c2C(=O)c2ccccc2C3=O)CC1,inactive
4,Cc1ccccc1-c1cc2c(nn1)-c1ccccc1C2=O,2.23 µM
5,CCC(CNc1cc(OC)cc2cccnc12)NC1CCCCC1 (configuration not stated),6.96 µM
6,O=C1C=C(Nc2ccccc2)c2ccccc2C1=O,inactive
7,O=C1C(=O)c2cccnc2-c2ncccc21,inactive
8,CN(C)c1ncc(C2=C(Cl)C(=O)C(N3CCCC3)=C(Cl)C2=O)s1,inactive
9,CC[C@H](CO)Oc1cc(NCc2cccc(N)c2)c2ncn(C(C)C)c2c1,inactive
10,CC(=O)N(C1=C(Cl)C(=O)c2ccccc2C1=O)C1CCCCC1,inactive
11,C=CCN(CC=C)C(=S)Nc1ccc2nsnc2c1,inactive
12,CC(=O)c1ccc(NC2=C(N3CCOCC3)C(=O)c3ccccc3C2=O)cc1,inactive
13,CCCCn1c(NS(=O)(=O)c2ccccc2)c(C(=O)OCC)c2nc3ccccc3nc21,> 115 µM (inactive)
14,COc1ccccc1Nc1cc2cc(Br)ccc2c(=O)[nH]1,1.36 µM
15,Nc1ccc(N2CCCCC2)c2nonc12,inactive
16,C=CCN1C=CC(=C/C=C(/C#N)C(=O)OCC)C=C1,inactive

row,SMILES,IC50
1,Cc1cccc(NC(=O)c2sc3nc4c(c(-c5cccs5)c3c2N)CN(C)CC4)c1,inactive
2,COc1cc(NC(C)CCCN)c2ncccc2c1 (configuration not stated),inactive
3,CCOCCCNC1=C(Cl)C(=O)c2ccccc2C1=O,inactive
4,CC1(C)C=C2C(=NN(c3ccccc3)C(N)=C2C#N)CO1,inactive
5,CCCNC1=C(N(C(C)=O)c2cccc(F)c2)C(=O)c2ccccc2C1=O,> 12.7 µM (inactive)
6,Cc1ccc(S(=O)(=O)/N=C2\C=C(Nc3cccc(C(=O)O)c3)C(=O)c3ccccc32)cc1,1.99 µM
7,CC(C)=CCC1=C(OCC(=O)O)C(=O)c2ccccc2C1=O,inactive
8,COc1cc(C=c2c3ccccc3n3c2cc(-c2ccccc2)[n+]3C)cc(OC)c1OC,5.77 µM
9,O=C(O)c1ccc(NC2=C/C(=N/S(=O)(=O)c3cccs3)c3ccccc3C2=O)cc1,1.4 µM
10,CN1/C(=C\C=C2C(=O)NC(=O)NC2=O)C(C)(C)c2ccccc21,inactive
11,CCCCCCCCCCCCCCCCn1cc[n+](C)c1,7.06 µM
12,O=C(COC(=O)c1ccc([N+](=O)[O-])s1)Nc1ccccc1,inactive
13,CCOC(=O)c1cc2c(=Cc3ccc(N(C)C)cc3)c3ccccc3n2[n+]1C,5.69 µM
14,CC(C)C[C@H](NC(=O)c1[nH]cnc1C(=O)N[C@@H](C)C(=O)OC(C)(C)C)C(=O)OC(C)(C)C,inactive
15,CCOC(=O)N=Nc1c2ccccc2c2nc3no[nH]c3nc12,7.75 µM
16,O=C1Cc2ccccc2C(=O)N1CCc1ccccc1,1.51 µM
